# Legend:
# [1] = test system: A2780 ovarian carcinoma cell line; experiment: MTT assay, viability of A2780 cells; format: cell-based, human; settings: for antiproliferative activity at 50 μM concentration: A2780, 50 μM, monitored at 24 and 72 h (Figure S262); for IC50: MTT assay, cells treated daily for 3 days
# Procedure: (§1) The number of viable cells was indirectly determined by measuring the conversion of the tetrazolium salt MTT (3-{4,5-dimethilthiasol-2-il}-2,5-diphenyltetrasolium bromide, Sigma-Aldrich) to formazan by mitochondrial dehydrogenases. Cells were plated in 96-well multi-titer plates (10,000 cells per well density) in quadruplicates and were cultured for 3 days and treated by the compounds daily. Negative control group was treated with equal amount of vehicle solvent (DMSO) and positive control group was treated with 1 µg/mL doxorubicin. Cells were then incubated with 5 mg/mL MTT for 3 h, precipitated formazan crystals were dissolved in acidic isopropanol (10% 1 M HCl in isopropanol supplemented with 10% Triton X 100), and concentration of formazan was assessed colorimetrical way measuring absorbance at 565 nm.
# (§2) Logistic dose-response curves were fitted using the equation y = A2 + (A1-A2)/(1 + (x/x0)^p) where the parameters are: A1: initial value (ymin), A2: final value (ymax), x0: center (EC/IC50), and p is the calculated power. Fittings were carried out and parameters were calculated using Origin 8.6 (OriginLab Corporation, Northampton, MA, USA).
# WM35 melanoma cell line = experiment: MTT assay, viability of WM35 cells; format: cell-based, human; settings: for antiproliferative activity at 50 μM concentration: WM35, 50 μM, monitored at 24 and 72 h (Figure S263); for EC20 (logistic fit) / EC80 (logistic fit): WM35, MTT dose-response fit, treated daily for 3 days, SI figures; for IC50: MTT assay, cells treated daily for 3 days
# Procedure: as §1, §2
# [2] = test system: acute myeloid leukemia cells; parameters: method as in PMID 31744877; settings: across 30 human cell lines; read-out: EC50, viability of acute myeloid leukemia cells; cited from earlier work
# [3] = test system: chemoresistant forms of prostate cancer; parameters: method as in PMID 23423838; settings: cited from earlier work
# [4] = test system: non-cancerous HaCaT human keratinocytes; experiment: MTT assay, viability of HaCaT keratinocytes; format: cell-based; parameters: EC20 (logistic fit) / EC80 (logistic fit): unit not given here; settings: for EC20 (logistic fit) / EC80 (logistic fit): MTT dose-response fit, treated daily for 3 days, SI figures; for IC50: MTT assay, cells treated daily for 3 days
# Procedure: as §1, §2
# [5] = test system: A2780 ovarian carcinoma cells; experiment: MitoProbe DilC1(5) assay, mitochondrial membrane potential; format: cell-based, human; settings: A2780, 24 hrs incubation
# Source text: (§3) 2.13. MitoProbe^TM DilC1(5) Assay and SYTOX Green Labeling
# (§4) Decrease in mitochondrial membrane potential is an early hallmark of apoptosis and the disruption of the plasma membrane integrity is characteristic for cellular necrosis. These events were investigated simultaneously using MitoProbe^TM DilC1(5) assay kit and SYTOX green (both from Molecular Probes/ThermoiFisher) staining, respectively. DilC1(5) (1,1′,3,3,3′,3′-hexamethylindodicarbo - cyanine iodide) is a fluorescent cyanine dye which penetrates cytoplasm with intact membrane and accumulates primarily in mitochondria depending on the mitochondrial membrane potential. […] SYTOX Green is a nucleic acid stain impermeant to live cells with intact plasma membrane, but it penetrates the compromised membrane of necrotic, dead cells resulting in a bright green fluorescent nuclear staining.
# (§5) Cells were plated in 96-well multi-titer plates (10,000 cells per well density) in quadruplicates and were incubated for 24 h with various concentrations of rac-19g. […] Finally, the excess of the dyes was removed, cells were gently washed in PBS, and fluorescence of DilC1(5) and SYTOX Green was measured at 630/680 nm and 490/520 nm (excitation/emission), respectively, using a FlexStation 3 (Molecular Devices) multimodal microplate reader.
# [6] = test system: A2780 ovarian carcinoma cells; experiment: SYTOX Green labeling, plasma membrane integrity; format: cell-based; settings: A2780, 24 hrs incubation
# Source text: as §3, §4, §5
# [7] = test system: A2780 ovarian carcinoma cells; experiment: CyQUANT cell proliferation assay, total DNA content; format: cell-based, human; settings: A2780, 24 hrs incubation
# Procedure: 2.14. CyQUANT® Cell Proliferation Assay
# CyQUANT assay assesses the cellular proliferation indirectly by directly determining the DNA content in a cell population using CyQUANT fluorescent dye. […] Therefore, it is suitable to asses DNA synthesis associated with cellular proliferation. Cells were plated in 96-well multi-titer plates (10,000 cells per well density) in quadruplicates and were incubated for 24 h with various concentrations of rac-19g, then assayed for cellular proliferation following the manufacturer’s protocol. Briefly, supernatants were gently removed and the plate was snap frozen and stored at −70 °C. Then plate was thawed, cells were lysed and incubated with CyQUANT dye. The excess of the dye was removed and fluorescence was measured at 490/520 nm (excitation/emission) using a FlexStation 3 (Molecular Devices) multimodal microplate reader.
# [8] = A2780, MTT dose-response fit, treated daily for 3 days, SI figures
Structure (SMILES),antiproliferative activity at 50 μM concentration [1],antiproliferative activity at 50 μM concentration (WM35 melanoma cell line),"EC20 (logistic fit) [1, 8]",EC20 (logistic fit) (WM35 melanoma cell line),EC80 (logistic fit) (WM35 melanoma cell line),EC20 (logistic fit) ([4]; HaCaT),EC80 (logistic fit) ([4]; HaCaT),other results
"COc1ccc(C2Oc3ccccc3-c3sc(C)nc32)cc1 (racemic) [rac-3b, (±)-2-methyl-4-(4-methoxyphenyl)-4H-chromeno[3,4-d][1,3]thiazole]",much weaker activities,much weaker activities,–,–,–,–,–,–
CCCCCCCCCCCCCCCC(O)C(CO)NC(=O)CBr (stereo not shown) [SABRAC],–,–,–,–,–,–,–,EC50 [2]: ~3 µM; growth of chemoresistant forms of prostate cancer [3]: inhibit the growth
"CCOC(=O)c1c(C)[nH]c2c1-c1ccccc1OC2c1ccc2ccccc2c1 (racemic) [rac-4g, (±)-ethyl 2-methyl-4-(naphthalen-2-yl)-3,4-dihydrochromeno[3,4-b]pyrrole-1-carboxylate]",–,–,–,–,–,–,–,melting point: 149 to 151 °C
CCCCCCCCCCCCCCCC(O)C(CO)NC(=O)CCl (stereo not shown) [SACLAC],–,–,–,–,–,–,–,EC50 [2]: ~3 µM; growth of chemoresistant forms of prostate cancer [3]: inhibit the growth
"COc1cc(OC)cc([C@@H]2Oc3ccccc3[C@H]3OCCN[C@H]32)c1 (racemic) [rac-(4aS*,5R*,10bS*)-2d, (±)-(4aR*,5S*,10bR*)-5-(3,5-dimethoxyphenyl)-2,3,4,4a,5,10b-hexahydrochromeno[4,3-b][1,4]oxazine]",the most active,the most active,"10,79361 mM","14,15843 µM","53,361 µM",11.28,81.84,IC50 [4]: 30.4 ± 49.8 µM
"CCOC(=O)c1c(C)[nH]c2c1-c1ccccc1OC2c1ccc(OC)cc1 (racemic) [rac-4b, (±)-ethyl 2-methyl-4-(4-methoxyphenyl)-3,4-dihydrochromeno[3,4-b]pyrrole-1-carboxylate]",–,–,"1,99005 mM","1,2746 µM","26,63177 µM",2.492,36.73,IC50 [1]: 4.84 ± 1.38 µM; IC50 (WM35 melanoma cell line): 5.83 ± 1.78 µM; IC50 [4]: 9.57 ± 8.77 µM
"COc1ccc(C2Oc3ccccc3-c3sc(C)nc32)cc1OC (racemic) [rac-3c, (±)-2-methyl-4-(3,4-dimethoxyphenyl)-4H-chromeno[3,4-d][1,3]thiazole]",much weaker activities,much weaker activities,–,–,–,–,–,–
"CCOC(=O)c1c(C)[nH]c2c1-c1ccccc1OC2c1ccc(OC)c(OC)c1 (racemic) [rac-4c, (±)-ethyl 2-methyl-4-(3,4-dimethoxyphenyl)-3,4-dihydrochromeno[3,4-b]pyrrole-1-carboxylate]",–,–,"2,14809 mM","1,55024 µM","43,44318 µM",0.9397,4.167,IC50 [1]: 5.34 ± 0.88 µM; IC50 (WM35 melanoma cell line): 8.21 ± 4.38 µM; IC50 [4]: 1.97 ± 0.29 µM
"COc1cccc2c1C(=O)c1c(O)c3c(c(O)c1C2=O)C[C@@](O)(C(=O)CO)C[C@@H]3O[C@H]1C[C@H](N)[C@H](O)[C@H](C)O1 [Doxorubicin, reference compound]",–,–,–,–,–,–,–,"IC50 ([1]; Homo sapiens, A2780, 72 h): 0.07 µM; IC50 (WM35 melanoma cell line; Homo sapiens, WM35, 72 h): 0.14 µM; IC50 ([4]; Homo sapiens, HaCaT, 72 h): 0.03 µM"
"COc1ccc([C@@H]2Oc3ccccc3[C@@H]3OCCN[C@@H]23)cc1.Cl (racemic) [rac-(4aS*,5R*,10bR*)-2b, (±)-(4aR*,5S*,10bS*)-5-(4-methoxyphenyl)-2,3,4,4a,5,10b-hexahydrochromeno[4,3-b][1,4]oxazine hydrochloride]",the most active,the most active,"6,72446 mM","26,114 µM","43,39258 µM",7.569,38.76,IC50 [1]: 10.4 ± 2.71 µM; IC50 [4]: 17.1 ± 7.95 µM
"Cc1nc2c(s1)-c1ccccc1OC2c1ccc2ccccc2c1 (racemic) [rac-3g, (±)-2-methyl-4-(naphthalen-2-yl)-4H-chromeno[3,4-d][1,3]thiazole]",much weaker activities,much weaker activities,–,–,–,–,–,melting point: 129 to 130 °C
"Cc1nc2c(s1)-c1ccccc1OC2c1ccccc1 (racemic) [rac-3a, (±)-2-methyl-4-phenyl-4H-chromeno[3,4-d][1,3]thiazole]",much weaker activities,much weaker activities,–,–,–,–,–,–
"O=C(CCl)N[C@@H]1[C@@H](O)c2ccccc2O[C@H]1c1ccc2ccccc2c1 (racemic) [rac-19g, (±)-2-chloro-N-[(2R*,3S*,4R*)-4-Hydroxy-2-(naphthalen-2-yl)-3,4-dihydro-2H-chromen-3-yl]acetamide]",–,–,"0,01488 mM","1,26314 µM","9,68285 µM",–,–,"EC50 ([1]; Homo sapiens, 72 h, A2780, MTT dose-response fit, treated daily for 3 days, SI figures, read-out: EC50 (x0 of logistic fit) (converted)): 0.151 µM; IC50 ([1]; Homo sapiens, A2780, 72 h): 0.15 ± 0.14 µM; IC50 (WM35 melanoma cell line; Homo sapiens, WM35, 72 h): 3.5 ± 1.94 µM; IC50 ([4]; Homo sapiens, HaCaT, 72 h): 6.06 ± 3.3 µM; mitochondrial membrane potential [DilC1(5) staining] [5]: decreased the mitochondrial membrane potential; integrity of the plasma membrane (SYTOX Green staining) [6]: intact (negative SYTOX Green staining); proliferation-associated DNA synthesis (CyQUANT Assay) [7]: inhibited proliferation-associated DNA synthesis"
"COc1cc(C2Oc3ccccc3-c3sc(C)nc32)cc(OC)c1OC (racemic) [rac-3e, (±)-2-methyl-4-(3,4,5-trimethoxyphenyl)-4H-chromeno[3,4-d][1,3]thiazole]",–,–,"1,58958 mM","0,11527 µM","39,68998 µM",3.395,11.45,"IC50 ([1]; Homo sapiens, A2780, 72 h): 2.74 µM; IC50 [1]: 2.72 ± 0.48 µM; IC50 (WM35 melanoma cell line; Homo sapiens, WM35, 72 h): 2.14 ± 1.85 µM; IC50 ([4]; Homo sapiens, HaCaT, 72 h): 6.23 ± 1.25 µM; melting point: 113 to 115 °C"

# Source: publication PMC7593906, “Synthesis and HPLC-ECD Study of Cytostatic Condensed O,N-Heterocycles Obtained from 3-Aminoflavanones” (Biomolecules, 2020)
